Here are results for two molecules from patent publication US20220017520A1, “MACROCYCLIC COMPOUND AS CDK INHIBITOR, PREPARATION METHOD THEREFOR, AND USE THEREOF IN MEDICINE” (Keythera (Suzhou) Pharmaceuticals Co. Ltd., priority 2018, published 2022).

One experiment deals with neointima formation. The settings on record: rats; cited from earlier work.
For another experiment, the system named is metastatic breast cancer. To be noted: drug alone, patients with hormone receptor-positive metastatic breast cancer, Phase I; cited from earlier work.
In another experiment the test system is MCF-7 cells. The experiment can be described thus: In vitro cell proliferation assay by BrdU method. The format is cell-based. The settings on record: 72 hours, 10% FBS. The protocol:
In Vitro Cell Inhibitory Activity of the Compound of the Present Invention
Experimental method: Cell proliferation assay was carried out by BrdU method (BrdU cell proliferation assay kit, Cell Signaling Technology Co.)
Preparation of gradient dilution solution of test compound: the 10 mM stock solution of test compound was subjected to 4-fold serial gradient dilution with DMSO to obtain solutions with a concentration of 2.5 mM, […], respectively. 2 μL of DMSO-diluted compound was added to 198 μL of culture medium containing 10% FBS to obtain 10-fold test compound, wherein the maximum concentration of the test compound was 10 μM, the DMSO concentration was 1%, with a total of 7 concentration gradients.
MCF-7 culture medium: DMEM+10% FBS+0.01 mg/mL insulin
(1) Cells grown to 80% (in exponential growth phase) were digested with pancreatin, and were collected by centrifugation. MDA-MB-435S cells and U87MG cells were re-suspended in a FBS-free culture medium, counted and inoculated to a 96-well plate; MDA-MB-435S cells were inoculated at 3000 cells/well/81 μL, and U87MG cells were inoculated at 4000 cells/well/81 μL. MCF-7 cells were resuspended in a culture medium containing 1% FBS, counted and inoculated to a 96-well plate at 4000 cell/well/82 μL. The cells were incubated in a cell incubator at 37° C.
(2) After 24 hours of incubation, FBS (9 μL) was added to each well of the MDA-MB-435S cells and U87MG cells, and 8 μL of FBS was added to each well of the MCF-7 cells, so as to obtain a final FBS concentration of 10%.
(3) A different concentration of 10-fold test compound (10 μL) was added to each well to obtain a final concentration of test compound of 10 μM, 2.5 μM, 625 nM, 156 nM, 39 nM, 9.8 nM or 2.5 nM, respectively, with 3 repeated wells/group, and the cells were incubated at 37° C. for 72 hours.
(4) 10-fold BrdU solution (10 μL) was added to each well, and the cells were incubated in the incubator for 4 hours, followed by discarding the culture medium.
(5) Fixing/denaturation solution (10 μL) was added to each well, and the cells were incubated at room temperature for 30 minutes, followed by discarding the solution.
(6) 1-fold detection antibody solution (100 μL) was added to each well, the cells were incubated at room temperature for 1 hour, followed by discarding the solution, and the cells were washed with 1-fold washing solution (200 μL/well) three times.
(7) 1-fold HRP-labelled secondary antibody solution (100 μL) was added to each well, the cells were incubated at room temperature for 30 minutes, followed by discarding the solution, and the cells were washed with 1-fold washing solution (200 μL/well) three times.
(8) TMB substrate solution (100 μL) was added to each well, and the cells were incubated at room temperature for 30 minutes.
(9) Stop solution (100 μL) was added to each well, and the OD value at 450 nm was measured by a microplate reader.
1) Cell survival rate (%)=(ODtest compound−ODblank control)/(ODnormal cell control−ODblank control)×100%,
2) The data was processed by GraphPad Prism 5 software to obtain the curve and IC50 values.

Regarding `COc1ccc(CNc2nc(N(CCO)CCO)nc3c2ncn3C(C)C)cc1` [CVT-313], the “inhibition of neointima formation” value in the experiment on neointima formation was “greater than 80%”. On to “Abemaciclib [LY2834219, reference compound]”, for which the clinical benefit rate in the experiment on metastatic breast cancer was 61%. The molecule also returned an IC50 with MCF-7 cells of 120 nM.

A word on the IC50: it is the concentration that gives 50% inhibition. High values mean lower potency, low ones higher potency.
